This note sets out measurements from article PMC12549899 (Nature Communications, 2025).

The test addresses T1, DrOTOP1 E384A (Danio rerio, UniProt Q7ZWK8, E384A).
T1 construct: A previously generated codon-optimized full-length DrOTOP1[8]; (UniProt: Q7ZWK8) construct; expressed in transfected cells; host or cells: HEK-293 (CRL-1573, ATCC)
T1 sequence (Q7ZWK8 1-586 E384A): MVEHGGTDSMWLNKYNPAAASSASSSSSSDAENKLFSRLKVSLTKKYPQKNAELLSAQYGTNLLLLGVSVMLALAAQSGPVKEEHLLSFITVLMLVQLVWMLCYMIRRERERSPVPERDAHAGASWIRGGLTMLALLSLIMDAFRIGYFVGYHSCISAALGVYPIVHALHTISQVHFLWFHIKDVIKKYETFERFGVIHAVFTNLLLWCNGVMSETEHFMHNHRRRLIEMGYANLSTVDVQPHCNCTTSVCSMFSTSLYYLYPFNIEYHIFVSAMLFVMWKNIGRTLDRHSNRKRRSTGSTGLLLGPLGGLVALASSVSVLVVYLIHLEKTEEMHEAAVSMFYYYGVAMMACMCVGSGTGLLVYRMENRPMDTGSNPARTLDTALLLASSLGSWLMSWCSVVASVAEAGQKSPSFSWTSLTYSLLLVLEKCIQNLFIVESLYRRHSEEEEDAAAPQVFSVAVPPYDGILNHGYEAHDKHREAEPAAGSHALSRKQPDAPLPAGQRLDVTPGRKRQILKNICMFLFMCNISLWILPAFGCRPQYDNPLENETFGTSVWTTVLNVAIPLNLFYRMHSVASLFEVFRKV
The experiment in a line: Whole-cell patch-clamp, inhibition of acid-evoked currents, DrOTOP1 E384A (central site). Format: cell-based, zebrafish (Danio rerio). An excerpt: To functionally test the significance of the two binding sites identified by cryo-EM, we generated point mutations of DrOTOP1 using the binding poses and conformational changes observed in DrOTOP1_C2.2 to guide our mutations. As per the binding pose that best fits our cryo-EM density, C2.2 forms the following interactions in the outer site: hydrophobic packing against many non-polar residues W126, G130, M133, L134, F271, F570, and M573, and π-stacking with W532 (Fig. 5A). In addition, C2.2 could potentially form H-bonds with E267, if the sidechain is protonated or a water bridge is present, and with H574 if it moves closer (Fig. 5A). Likewise, C2.36 presents a heterocyclic nitrogen that can potentially form a H-bond with E267, similarly, provided a protonation or water bridge is present (Fig. 5B). In addition, C2.36 forms a T-shaped π-stacking interaction with H574, whose sidechain has rotated 90 degrees (compared to DrOTOP1_apo), presumably to accommodate the interaction (Fig. 5B). Considering other inhibitors discovered from the second round of screening, many contain functional groups like the carbonyl groups of Group 1 molecules and the heterocyclic nitrogen atoms of Group 2 molecules (Supplementary Fig. 3E), that can potentially form similar H-bonds with E267 as C2.2 and C2.36, assuming the binding modes are similar. In the central site, C2.2 binds with the following interactions: hydrophobic packing with residues V201, F271, A274, V278, and A388, π-stacking with F277, and H-bonding with E384 (Fig. 5C).
We next tested mutations of the central site (L205W, A274W, F277A, E384A L385W, A388W). V201W and S389W, two additional central site mutations, were excluded from the study due to complete loss of channel activity. Mutation of E384 to alanine is expected to disrupt potential hydrogen bonding with C2.2. Of note, E384 is one of the few charged residues in the central pocket and could form a salt bridge with K281, that could also be affected by the mutation. Additionally, in our DrOTOP1_C2.2 structure, we observed that F277 underwent a substantial rearrangement, likely to avoid steric clash and accommodate C2.2 binding. Thus, we introduced the F277A mutation to test if removing this steric clash would enhance C2.2 inhibition.
HEK-293 cells (CRL-1573, ATCC) were cultured in DMEM (Thermofisher 11995073) containing 10% fetal bovine serum (Life Technology 16000044) and Penicillin-Streptomycin (100 I.U./mL) and (100 µg/mL), respectively. Cells were transfected with WT DrOTOP1 or mutant DrOTOP1 channels in 35 mm petri dishes, with ~ 500 ng DNA and 2 μL TransIT-LT1 transfection reagent (Mirus Bio Corporation, Cat # MIR2300) following the manufacturer’s protocol. All constructs were subcloned into a pcDNA3.1 vector that adds an N-terminal fusion tag consisting of an octahistidine tag followed by eGFP, a Gly-Thr-Gly-Thr linker and a 3C protease cleavage site ([…]) followed by WT DrOTOP1, WT mOTOP1, WT hOTOP1, or mutated DrOTOP1. Point mutations were generated via In-Fusion Cloning (Takara) using single-stranded DNA primers generated through IDT and sequence confirmed by Sanger sequencing (GeneWiz).
Whole-cell patch-clamp recording was performed as previously described[6],[22],[25]. Recordings were made with an Axopatch 200B amplifier, digitized with a Digidata 1322a 16-bit data acquisition system, acquired with pClamp 8.2 and analyzed with Clampfit 10 (Molecular Devices). Recordings were sampled at 5 kHz and filtered at 1 kHz. Patch Pipettes with resistance of […] were fabricated from borosilicate glass, and only recordings with a giga-Ohm seal were used in analysis. Membrane potential was held at −80 mV for the duration of recordings. At the beginning of recordings and between, cells were washed with Tyrode’s solution (see below). […]

Take `C=C(C)COc1ccccc1NC(=O)c1nc[nH]c1C` [C2.2]: the Hill coefficient amounted to 1.184. Besides, at 3 µM the inhibition (3 µM, single cells) was 10.2%. For the same molecule, the inhibition at 10 µM (10 µM, single cells or mean) is ~40%. Where the note is “30 µM, single cells”, the inhibition at 30 µM was determined as 70.7%. For the setting “100 µM, single cells”, this molecule registered an inhibition at 100 µM of 96.3%. In addition, the inhibition at 300 µM (300 µM, single cells) worked out at 97.3%. The molecule also had an IC50 (pH 5.5) of 15.3 µM.
